Data from US9556113B2, “Combination uses of dichloroacetate and oxamate, and their prodrugs, for cancer treatment” (The South Dakota Board of Regents, priority 2014, dated 2017).

Assays:
[1] = Chemical stability (hydrolysis) in aqueous acetonitrile, HPLC; type: physicochemical; conditions: water:acetonitrile 1:1, ambient temperature, in 4 hours, 0.4 mg/mL
Protocol: FIG. 15 provides a graph of the hydrolysis of prodrug 1 (FIG. 15A) and prodrug 2 (FIG. 15B) in aqueous acetonitrile solution. Prodrug 1 or prodrug 2 (0.42 mg/mL) in aqueous acetonitrile (H2O:CH3CN=1:1) was stirred at ambient temperature. Aliquots were withdrawn and analyzed for the prodrug by HPLC as described in the experimental section.
Once the two prodrugs were obtained, their chemical stability and metabolic stability were determined. The chemical stability of prodrug 1 and prodrug 2 was determined in aqueous acetonitrile at ambient temperature. The prodrug (0.4 mg/mL) a mixture of water and acetonitrile (1:1) at ambient temperature. Aliquots were taken from the solution periodically and checked by HPLC for the presence of the prodrug. The HPLC analysis was carried out on a Beckman Coulter HPLC (System Gold) system, controlled by a system controller (32 Karat workstation with PC), equipped with a 125 gradient pumping module, a 508 autosampler with a sample cooling system, and a 168 photodiode array detector. The HPLC conditions employed an Apollo C18 column (250 mm×4.6 mm i.d., 5 μm) (Alltech, Deerfield, Ill.) and aqueous acetonitrile (50% with 0.1% TFA) as the mobile phase. The flow rate was 0.8 mL/min and the detection wavelength was 210 nm. Under the condition, the retention time for prodrugs 1 and 2 was 9.83 and 9.87 minutes respectively. […]

[2] = In vivo release of DCA and oxamate from prodrugs, blood LC/MS/MS; parameters: species or system female C57BL/6 mice; conditions: i.p., 7.6 mg/mouse
Protocol: FIG. 16 provides LC/MS chromatograms derived from blood samples of mice dosed with prodrug 1 (AT-N4-001) (A). Mice were dosed with prodrug 1 (7.6 mg/mouse) by i.p. Blood samples were collected at 5 min and 25 min for mice dosed with prodrug 1 through retro-orbital bleeding with mice under general anesthesia. After protein precipitation by acetonitrile, samples were analyzed by LC/MS/MS. For samples derived from mice dosed with prodrug 1, the electrospray ion source was operated in the negative ionization mode for four minutes to detect DCA and oxamate before switched to the positive ionization mode to detect prodrug 1. Selected reaction monitoring (SRM) was performed to monitor the mass transition of 386→297 (1), 127→83 (DCA) and selected ion monitoring (SIM) was performed to monitor oxamate at the m/z of 88.0.
FIG. 17 provides LC/MS chromatograms derived from blood samples of mice dosed with prodrug 2 (AT-N4-002) (B). Mice were dosed with prodrug 2 (7.6 mg/mouse) by i.p. Blood samples were collected at 5 min and 30 min for a mouse dosed with prodrug 2 through retro-orbital bleeding with mice under general anesthesia. After protein precipitation by acetonitrile, samples were analyzed by LC/MS/MS. For samples derived from mice dosed with prodrug 2, all the parameters were the same as set for prodrug 1 except the electrospray ion source was operated in the negative ionization mode for all the analytes. Prodrug 2 was detected by monitoring the mass transition of 384→126.
In vivo release of the prodrugs was investigated with female C57BL/6 mice. Mice were housed four in a cage and received food and water ad libitum. All mice were used at approximately 7-10 weeks of age and given at least one week break after arrival. All experimental protocols were approved by the Institutional Animal Care and Use Committee at South Dakota State University. A prodrug (1 or 2), suspended in 3% (v/v) Tween 80 in saline (30.4 mg/ml), was administered (7.6 mg/mouse) to mice by i.p. Blood samples were obtained through retro-orbital bleeding with mice under general anesthesia through the use of isoflurane. The blood samples were immediately frozen in liquid nitrogen and stored at −80° C. freezer before LC/MS/MS analysis.
The blood sample was quickly thawed at 37° C. The sample (200 μl) was first mixed with acetonitrile ([…]) and centrifuged at 14000 rpm for 2 min at 4° C. The precipitates were washed with additional acetonitrile (2×200 μl) and centrifuged. […]
LC/MS/MS analysis was completed on a ThermoFinnigan TSQ Quantum Ultra triple quadrupole mass spectrometer coupled with an Agilent Eclipse XDB-C18 column ([…], 5 μm) equipped with an Agilent XDB-C8 guard column. […] Prodrug 2 was detected by monitoring the mass transition of 384→126.

E6E7/Ras MTE cells = assay: Clonogenic growth (colony formation); type: cell-based, mouse; conditions: 7 days; for number of colonies compared to DCA treated cultures (FIG. 4C): 5 mM prodrug vs 10 mM DCA; for colony size (FIG. 4B): 5 mM prodrugs, 10 mM DCA, vs DMSO
Protocol: FIG. 4 illustrates prodrugs AT-N4-001 and AT-N4-002 inhibiting cell proliferation and colony growth of E6E7/Ras MTE cells. (A) E6E7/Ras MTE cultures were treated with DMSO (Con), AT-N4-001, or AT-N4-[…] 002 at the indicated concentration for one day. Live cell number was then determined using a trypan blue exclusion assay. (B) E6E7/Ras MTE cells were seeded on 100-mm plate at 500 cells per plate (in triplicate). After one day, cells were treated as indicated and allowed to grow until colonies of untreated controls reached 50 or more cells (7 days). Plates were stained with Coomassie blue to visualize the colonies. (C) Quantification of colonies described in B. Colonies with more than 15 cells were counted.
E6E7/Ras MTE cells are mouse tonsilar epithelial cells that have been transformed by HPV oncogenes E6 and E7 together with activated ras. They form tumors in mice and are a model of human HPV+HNSCC. These cells were treated in culture with either vehicle control (DMSO), AT-N4-001, or AT-N4-002 at concentrations of 1 mM, 2.5 mM and 5 mM for one day. Live cells were counted using a hemocytometer (FIG. 4A). […] The effects of the compounds on clonogenic growth of the cells were also tested. E6/E7/Ras MTE cells were seeded in 100 mm plates in triplicate, and the next day cells were treated with either vehicle control DMSO, 5 mM AT-N4-001, 5 mM AT-N4-002, or 10 mM DCA. DCA was used at a twice the concentration because the prodrugs each carry two molecules of DCA.

NC(=O)C(=O)OC(COC(=O)C(Cl)Cl)COC(=O)C(Cl)Cl [AT-N4-001, 2-(2-Amino-2-oxoacetoxy)propane-1,3-diyl bis(2,2-dichloroacetate)]
hydrolysis of prodrug [1]: about 10% | release of DCA and oxamate in vivo [2]: quickly released DCA and oxamate | prodrug in blood samples ([2]; after 25 min): No prodrug was detected | number of colonies compared to DCA treated cultures (FIG. 4C) (E6E7/Ras MTE cells): significantly lower | colony size (FIG. 4B) (E6E7/Ras MTE cells): approximately equal reductions in colony size

NC(=O)C(=O)OCC(COC(=O)C(Cl)Cl)OC(=O)C(Cl)Cl (stereo not shown) [AT-N4-002, 3-(2-amino-2-oxoacetoxy)propane-1,2-diyl bis(2,2-dichloroacetate)]
hydrolysis of prodrug [1]: about 10% | release of DCA and oxamate in vivo [2]: quickly released DCA and oxamate | prodrug in blood samples ([2]; after 30 min): No prodrug was detected | number of colonies compared to DCA treated cultures (FIG. 4C) (E6E7/Ras MTE cells): significantly lower | colony size (FIG. 4B) (E6E7/Ras MTE cells): approximately equal reductions in colony size
